Experiments:
Matrilysin = target: T1, Matrilysin (Homo sapiens, UniProt P09237); experiment: Inhibition of human recombinant MMP7 expressed in Escherichia coli by fluorogenic peptide cleavage assay
T1 sequence (P09237 whole entry): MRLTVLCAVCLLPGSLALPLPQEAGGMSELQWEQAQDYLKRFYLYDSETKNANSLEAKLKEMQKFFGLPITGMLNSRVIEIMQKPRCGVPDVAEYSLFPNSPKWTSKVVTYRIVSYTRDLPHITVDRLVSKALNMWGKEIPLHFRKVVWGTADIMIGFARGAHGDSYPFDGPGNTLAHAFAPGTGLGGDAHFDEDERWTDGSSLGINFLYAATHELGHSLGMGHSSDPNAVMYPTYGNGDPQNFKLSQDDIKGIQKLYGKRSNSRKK

[1] = target: Matrix metalloproteinase-14 (Homo sapiens, UniProt P50281); experiment: Inhibition of human recombinant MT1-MMP expressed in Escherichia coli by fluorogenic peptide cleavage assay
[2] = target: 72 kDa type IV collagenase (Homo sapiens, UniProt P08253); experiment: Inhibition of human recombinant MMP2 expressed in Escherichia coli by fluorogenic peptide cleavage assay
72 kDa type IV collagenase, sequence (P08253 whole entry): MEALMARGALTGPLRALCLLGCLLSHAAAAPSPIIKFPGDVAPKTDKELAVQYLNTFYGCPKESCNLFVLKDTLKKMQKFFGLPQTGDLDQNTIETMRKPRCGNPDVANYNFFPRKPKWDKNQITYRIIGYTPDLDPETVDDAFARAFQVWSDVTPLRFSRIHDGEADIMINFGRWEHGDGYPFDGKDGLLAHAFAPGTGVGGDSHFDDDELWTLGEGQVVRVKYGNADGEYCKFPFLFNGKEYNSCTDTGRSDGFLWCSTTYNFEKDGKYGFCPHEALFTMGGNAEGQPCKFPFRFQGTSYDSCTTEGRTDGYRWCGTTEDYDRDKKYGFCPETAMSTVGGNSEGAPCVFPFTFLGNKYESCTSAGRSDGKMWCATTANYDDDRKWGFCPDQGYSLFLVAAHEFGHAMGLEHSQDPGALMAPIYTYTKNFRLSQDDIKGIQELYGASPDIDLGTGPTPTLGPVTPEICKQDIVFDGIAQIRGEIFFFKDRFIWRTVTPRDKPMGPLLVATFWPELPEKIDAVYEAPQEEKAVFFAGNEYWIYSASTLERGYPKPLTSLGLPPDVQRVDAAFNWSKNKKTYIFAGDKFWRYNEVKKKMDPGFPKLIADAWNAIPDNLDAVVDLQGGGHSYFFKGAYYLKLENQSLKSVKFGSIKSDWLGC

Structure (SMILES)	IC50 (Matrilysin)	IC50 [1]	IC50 [2]
COc1c(O)cc(C(=O)O[C@@H]2Cc3c(O)cc(O)cc3O[C@H]2c2cc(O)c(O)c(O)c2)cc1O	32 µM	10.5 µM	19 µM
COc1c(O)cc(C(=O)O[C@@H]2Cc3c(O)cc(O)cc3O[C@@H]2c2ccc(O)c(O)c2)cc1O	> 100 µM	3.7 µM	34 µM
O=C(O[C@@H]1Cc2c(O)cc(O)cc2O[C@@H]1c1cc(O)c(O)c(O)c1)c1cc(O)c(O)c(O)c1 [EPIGALOCATECHIN GALLATE]	21.5 µM	6.8 µM	9.6 µM
COc1cc(C(=O)O[C@@H]2Cc3c(O)cc(O)cc3O[C@H]2c2cc(O)c(O)c(O)c2)cc(O)c1O	20 µM	3.1 µM	5.4 µM
COc1cc(C(=O)O[C@@H]2Cc3c(O)cc(O)cc3O[C@@H]2c2ccc(O)c(O)c2)cc(O)c1O	> 100 µM	15.6 µM	88 µM
COc1cc(C(=O)O[C@H]2Cc3c(O)cc(O)cc3O[C@@H]2c2ccc(O)c(O)c2)cc(O)c1O	> 100 µM	52 µM	28 µM
COc1cc(C(=O)O[C@@H]2Cc3c(O)cc(O)cc3O[C@@H]2c2cc(O)c(O)c(O)c2)cc(O)c1O	20 µM	1.7 µM	8.7 µM
COc1c(O)cc(C(=O)O[C@@H]2Cc3c(O)cc(O)cc3O[C@@H]2c2cc(O)c(O)c(O)c2)cc1O	72 µM	12.5 µM	18.7 µM
COc1c(O)cc(C(=O)O[C@H]2Cc3c(O)cc(O)cc3O[C@@H]2c2ccc(O)c(O)c2)cc1O	> 100 µM	> 100 µM	22 µM
